{"source": "patent US7078403B1", "about": "“Antiviral agents” (Biota Scientific Management Pty Ltd., priority 1999, dated 2006)"}
{"tested_on": "Coxsackie A21", "test": "Activity on Coxsackie A21 in mammalian cell culture assay", "assay_type": "cell-based", "details": "not given", "units": {"EC50": "µg/mL"}}
{"smiles": "CC(C)S(=O)(=O)n1c(N)nc2ccc(/C(=N/O)c3ccccc3)cc21", "note": "[Enviroxime]", "EC50": 0.39}
{"tested_on": "human embryo lung (MRC-5) cells", "test": "not given", "details": "not given"}
{"smiles": "CC(C)S(=O)(=O)n1c(N)nc2ccc(/C(=N/O)c3ccccc3)cc21", "note": "[Enviroxime]", "Activity on Rhinovirus Type 1A MTC": 0.49}
{"smiles": "CCO/N=C/c1cc(C)c(OCCCc2cc(-c3ccccc3)no2)c(C)c1", "note": "[Compound 127, 3,5-Dimethyl-[4-{3-(3-Phenyl-5-isoxazolyl)propoxy)]benzaldehyde O-ethyloxime]", "Activity on Rhinovirus Type 1A MTC": ">1"}
{"smiles": "CCON=Cc1ccc(OCCC2CCN(c3ccc(C=O)nn3)CC2)cc1", "note": "[Compound 128, 4-(2-[1-(6-Formyl-3-pyridazinyl)-4-piperidinyl]ethoxy)benzaldehyde O-ethyloxime]", "Activity on Rhinovirus Type 1A MTC": ">1"}
{"tested_on": "Enterovirus 70", "test": "Activity on Enterovirus 70 in mammalian cell culture assay", "assay_type": "cell-based", "details": "Enterovirus D", "units": {"EC50": "µg/mL"}}
{"smiles": "CC(C)S(=O)(=O)n1c(N)nc2ccc(/C(=N/O)c3ccccc3)cc21", "note": "[Enviroxime]", "EC50": 0.21}
{"tested_on": "HRV type 2", "test": "Inhibition of viral cytopathic effect (CPE), visual scoring or neutral red, HRV type 2 in KB cells", "assay_type": "cell-based, human rhinovirus", "details": "HRV type 2 in KB cells, CPE inhibition", "units": {"Activity on Rhinovirus Type 2 EC50": "µg/mL"}}
{"smiles": "C=CCON=Cc1ccc(OCCC2CCN(c3ccc(Cl)nn3)CC2)cc1", "note": "[Compound 13]", "Activity on Rhinovirus Type 2 EC50": 0.006}
{"smiles": "CCON=Cc1ccc(OCCC2CCN(c3ccc(Cl)nn3)CC2)c(C)c1", "note": "[Compound 42]", "Activity on Rhinovirus Type 2 EC50": 0.006}
{"smiles": "CON=Cc1ccc(OCCC2CCN(c3ccc(Cl)nn3)CC2)cc1", "note": "[Compound 8]", "Activity on Rhinovirus Type 2 EC50": 0.03}
{"smiles": "CCON=Cc1cc(C)c(OCCCc2cc(C)no2)c(C)c1", "note": "[Compound 24]", "Activity on Rhinovirus Type 2 EC50": "<0.05"}
{"smiles": "CCON=Cc1ccc(OCCC2CCN(c3ccc(Cl)nn3)CC2)c(OC)c1", "note": "[Compound 5]", "Activity on Rhinovirus Type 2 EC50": 0.009}
{"smiles": "CON=Cc1ccc(OCCC2CCN(c3ccc(C)nn3)CC2)cc1", "note": "[Compound 7]", "Activity on Rhinovirus Type 2 EC50": 0.15}
{"tested_on": "HRV type 2", "test": "Inhibition of viral cytopathic effect (CPE), visual scoring or neutral red, HRV type 2 in KB cells", "assay_type": "cell-based, human rhinovirus", "details": "selectivity index = CC50 or MTC divided by EC50; HRV type 2, KB cells"}
{"smiles": "C=CCON=Cc1ccc(OCCC2CCN(c3ccc(Cl)nn3)CC2)cc1", "note": "[Compound 13]", "Activity on Rhinovirus Type 2 SI": 83}
{"smiles": "CCON=Cc1ccc(OCCC2CCN(c3ccc(Cl)nn3)CC2)c(C)c1", "note": "[Compound 42]", "Activity on Rhinovirus Type 2 SI": ">167"}
{"smiles": "CON=Cc1ccc(OCCC2CCN(c3ccc(Cl)nn3)CC2)cc1", "note": "[Compound 8]", "Activity on Rhinovirus Type 2 SI": ">33"}
{"smiles": "CCON=Cc1cc(C)c(OCCCc2cc(C)no2)c(C)c1", "note": "[Compound 24]", "Activity on Rhinovirus Type 2 SI": ">500"}
{"smiles": "CCON=Cc1ccc(OCCC2CCN(c3ccc(Cl)nn3)CC2)c(OC)c1", "note": "[Compound 5]", "Activity on Rhinovirus Type 2 SI": ">111"}
{"smiles": "CON=Cc1ccc(OCCC2CCN(c3ccc(C)nn3)CC2)cc1", "note": "[Compound 7]", "Activity on Rhinovirus Type 2 SI": ">7"}
{"tested_on": "not listed separately", "test": "in vitro", "details": "mammalian cell culture (cell line not stated)", "units": {"CC50": "µg/mL"}}
{"smiles": "CCO/N=C/c1ccc(OCCC2CCN(c3nnc(C)s3)CC2)cc1", "note": "[Compound 158]", "CC50": "> 0.5"}
{"smiles": "CCO/N=C/c1ccc(OCCCCCN(C)c2ccc(Cl)nn2)cc1", "note": "[Compound 161]", "CC50": "> 0.5"}
{"smiles": "Cc1cc(CCCOc2c(C)cc(-c3noc(C(F)(F)F)n3)cc2C)on1", "note": "[Pleconaril, reference compound]", "CC50": "> 0.1"}
{"smiles": "CCO/N=C/c1csc(OCCC2CCN(c3ccc(C)nn3)CC2)n1", "note": "[Compound 155, 2-(1-(6 methyl-3-pyridazinyl)-4-piperidinylethoxy)-thiazole-4-carboxaldehyde O-ethyl oxime]", "CC50": "> 0.5"}
{"tested_on": "Human Rhinovirus strains 1B, 3, 4, 5, 6, 8, 9, 11, 12, 13, 16, 17, 21, 25, 30, 32, 33, 38, 39, 40, 42, 43, 45, 48, 52, 54, 56, 57, 59, 60, 63, 67, 68, 69, 72 …", "test": "Standard CPE reduction assay against a panel of Human Rhinovirus strains", "assay_type": "cell-based", "details": "HRV strains panel"}
{"smiles": "CCON=Cc1cc(C)c(OCCCc2cc(C)no2)c(C)c1", "note": "[Compound 24]", "Inhibitory activity compared with Pleconaril": "superior activity to Pleconaril"}
{"tested_on": "HRV type 1A", "test": "Inhibition of viral cytopathic effect (CPE), visual scoring or neutral red, HRV type 1A in MRC-5 cells", "assay_type": "cell-based, human rhinovirus", "details": "Enterovirus, MRC5, HRV type 1A in MRC-5 cells, CPE inhibition; read-out: Activity on Rhinovirus Type 1A EC50", "units": {"EC50": "µg/mL"}}
{"smiles": "CC(C)S(=O)(=O)n1c(N)nc2ccc(/C(=N/O)c3ccccc3)cc21", "note": "[Enviroxime]", "EC50": 0.006}
{"smiles": "CCO/N=C/c1cc(C)c(OCCCc2cc(-c3ccccc3)no2)c(C)c1", "note": "[Compound 127, 3,5-Dimethyl-[4-{3-(3-Phenyl-5-isoxazolyl)propoxy)]benzaldehyde O-ethyloxime]", "EC50": 0.329}
{"smiles": "CCON=Cc1ccc(OCCC2CCN(c3ccc(C=O)nn3)CC2)cc1", "note": "[Compound 128, 4-(2-[1-(6-Formyl-3-pyridazinyl)-4-piperidinyl]ethoxy)benzaldehyde O-ethyloxime]", "EC50": 0.063}
{"tested_on": "HRV type 1A", "test": "Inhibition of viral cytopathic effect (CPE), visual scoring or neutral red, HRV type 1A in MRC-5 cells", "assay_type": "cell-based, human rhinovirus", "details": "HRV type 1A in MRC-5 cells, CPE inhibition", "units": {"Activity on Rhinovirus Type 1A EC50": "µg/mL"}}
{"smiles": "C=CCON=Cc1ccc(OCCC2CCN(c3ccc(Cl)nn3)CC2)cc1", "note": "[Compound 13]", "Activity on Rhinovirus Type 1A EC50": "<0.0032"}
{"smiles": "CCON=Cc1ccc(OCCC2CCN(c3ccc(Cl)nn3)CC2)c(C)c1", "note": "[Compound 42]", "Activity on Rhinovirus Type 1A EC50": 0.006}
{"smiles": "CON=Cc1ccc(OCCC2CCN(c3ccc(Cl)nn3)CC2)cc1", "note": "[Compound 8]", "Activity on Rhinovirus Type 1A EC50": "<0.0032"}
{"smiles": "CCON=Cc1cc(C)c(OCCCc2cc(C)no2)c(C)c1", "note": "[Compound 24]", "Activity on Rhinovirus Type 1A EC50": "<0.16"}
{"smiles": "CCON=Cc1ccc(OCCC2CCN(c3ccc(Cl)nn3)CC2)c(OC)c1", "note": "[Compound 5]", "Activity on Rhinovirus Type 1A EC50": "<0.0032"}
{"smiles": "CON=Cc1ccc(OCCC2CCN(c3ccc(C)nn3)CC2)cc1", "note": "[Compound 7]", "Activity on Rhinovirus Type 1A EC50": "<0.0032"}
{"tested_on": "HRV type 1A", "test": "Inhibition of viral cytopathic effect (CPE), visual scoring or neutral red, HRV type 1A in MRC-5 cells", "assay_type": "cell-based, human rhinovirus", "details": "selectivity index = CC50 or MTC divided by EC50; HRV type 1A, MRC-5 cells"}
{"smiles": "CC(C)S(=O)(=O)n1c(N)nc2ccc(/C(=N/O)c3ccccc3)cc21", "note": "[Enviroxime]", "Activity on Rhinovirus Type 1A SI": 75.91}
{"smiles": "C=CCON=Cc1ccc(OCCC2CCN(c3ccc(Cl)nn3)CC2)cc1", "note": "[Compound 13]", "Activity on Rhinovirus Type 1A SI": ">312"}
{"smiles": "CCON=Cc1ccc(OCCC2CCN(c3ccc(Cl)nn3)CC2)c(C)c1", "note": "[Compound 42]", "Activity on Rhinovirus Type 1A SI": ">177.8"}
{"smiles": "CON=Cc1ccc(OCCC2CCN(c3ccc(Cl)nn3)CC2)cc1", "note": "[Compound 8]", "Activity on Rhinovirus Type 1A SI": ">312"}
{"smiles": "CCON=Cc1cc(C)c(OCCCc2cc(C)no2)c(C)c1", "note": "[Compound 24]", "Activity on Rhinovirus Type 1A SI": ">320"}
{"smiles": "CCO/N=C/c1cc(C)c(OCCCc2cc(-c3ccccc3)no2)c(C)c1", "note": "[Compound 127, 3,5-Dimethyl-[4-{3-(3-Phenyl-5-isoxazolyl)propoxy)]benzaldehyde O-ethyloxime]", "Activity on Rhinovirus Type 1A SI": ">3"}
{"smiles": "CCON=Cc1ccc(OCCC2CCN(c3ccc(Cl)nn3)CC2)c(OC)c1", "note": "[Compound 5]", "Activity on Rhinovirus Type 1A SI": ">312"}
{"smiles": "CON=Cc1ccc(OCCC2CCN(c3ccc(C)nn3)CC2)cc1", "note": "[Compound 7]", "Activity on Rhinovirus Type 1A SI": ">312"}
{"smiles": "CCON=Cc1ccc(OCCC2CCN(c3ccc(C=O)nn3)CC2)cc1", "note": "[Compound 128, 4-(2-[1-(6-Formyl-3-pyridazinyl)-4-piperidinyl]ethoxy)benzaldehyde O-ethyloxime]", "Activity on Rhinovirus Type 1A SI": ">15"}
{"tested_on": "Rhinovirus Type 14", "test": "not given", "assay_type": "cell-based, human rhinovirus", "details": "Enterovirus, HRV14, read-out: Activity on Rhinovirus Type 14 EC50", "units": {"EC50": "µg/mL"}}
{"smiles": "Cc1cc(CCCOc2c(C)cc(-c3noc(C(F)(F)F)n3)cc2C)on1", "note": "[Pleconaril, reference compound]", "EC50": 0.0608}
{"tested_on": "Rhinovirus Type 14", "test": "not given", "assay_type": "cell-based, human rhinovirus", "details": "Enterovirus, HRV14; HRV-14; read-out: Activity on Rhinovirus Type 14 EC50", "units": {"EC50": "µg/mL"}}
{"smiles": "CCO/N=C/c1ccc(OCCC2CCN(c3nnc(C)s3)CC2)cc1", "note": "[Compound 158]", "EC50": 0.00095}
{"smiles": "CCO/N=C/c1ccc(OCCCCCN(C)c2ccc(Cl)nn2)cc1", "note": "[Compound 161]", "EC50": 0.0348}
{"smiles": "CCO/N=C/c1csc(OCCC2CCN(c3ccc(C)nn3)CC2)n1", "note": "[Compound 155, 2-(1-(6 methyl-3-pyridazinyl)-4-piperidinylethoxy)-thiazole-4-carboxaldehyde O-ethyl oxime]", "EC50": 0.0138}
{"tested_on": "Rhinovirus Type 14", "test": "not given", "assay_type": "cell-based, human rhinovirus", "details": "HRV-14", "units": {"Activity on Rhinovirus Type 14 EC50": "µg/mL"}}
{"smiles": "C=CCON=Cc1ccc(OCCC2CCN(c3ccc(Cl)nn3)CC2)cc1", "note": "[Compound 13]", "Activity on Rhinovirus Type 14 EC50": 0.0078}
{"smiles": "CCON=Cc1ccc(OCCC2CCN(c3ccc(Cl)nn3)CC2)c(C)c1", "note": "[Compound 42]", "Activity on Rhinovirus Type 14 EC50": 0.0111}
{"smiles": "CON=Cc1ccc(OCCC2CCN(c3ccc(Cl)nn3)CC2)cc1", "note": "[Compound 8]", "Activity on Rhinovirus Type 14 EC50": 0.0072}
{"smiles": "CCON=Cc1ccc(OCCC2CCN(c3ccc(Cl)nn3)CC2)c(OC)c1", "note": "[Compound 5]", "Activity on Rhinovirus Type 14 EC50": 0.0077}
{"smiles": "CON=Cc1ccc(OCCC2CCN(c3ccc(C)nn3)CC2)cc1", "note": "[Compound 7]", "Activity on Rhinovirus Type 14 EC50": 0.0068}
{"tested_on": "human embryo lung (MRC-5) cells", "test": "Cytotoxicity (CC50 or MTC) in uninfected MRC-5 cells", "details": "unit not given"}
{"smiles": "C=CCON=Cc1ccc(OCCC2CCN(c3ccc(Cl)nn3)CC2)cc1", "note": "[Compound 13]", "Activity on Rhinovirus Type 1A MTC": ">1"}
{"smiles": "CCON=Cc1ccc(OCCC2CCN(c3ccc(Cl)nn3)CC2)c(C)c1", "note": "[Compound 42]", "Activity on Rhinovirus Type 1A MTC": ">1"}
{"smiles": "CON=Cc1ccc(OCCC2CCN(c3ccc(Cl)nn3)CC2)cc1", "note": "[Compound 8]", "Activity on Rhinovirus Type 1A MTC": ">1"}
{"smiles": "CCON=Cc1cc(C)c(OCCCc2cc(C)no2)c(C)c1", "note": "[Compound 24]", "Activity on Rhinovirus Type 1A MTC": ">50"}
{"smiles": "CCON=Cc1ccc(OCCC2CCN(c3ccc(Cl)nn3)CC2)c(OC)c1", "note": "[Compound 5]", "Activity on Rhinovirus Type 1A MTC": ">1"}
{"smiles": "CON=Cc1ccc(OCCC2CCN(c3ccc(C)nn3)CC2)cc1", "note": "[Compound 7]", "Activity on Rhinovirus Type 1A MTC": ">1"}
